Test [1] in a line: blood pressure after injection into the area postrema of medula oblongata. It is filed as in vivo, male Wistar rats. Conditions: 10 nmol into the area postrema of medula oblongata, conscious rats. The protocol:
The inventors explored the influence of injection of 19P2-L31 into the area postrema of medula oblongata on blood pressure. Mature male Wistar rats (body weights at operation: ca 300 g) were anesthetized with pentobarbital 50 mg/kg i.p. and each animal was immobilized in a rat brain stereotaxic apparatus. The incisor bar was lowered by 3.3 mm from the interaural line. The skull was exposed, and using a dental drill a hole was made on the skull for implantation of a guide cannula. In addition, anchor screws were buried in two positions around the drilled hole. A stainless-steel guide cannula, AG-12 (0.4 mm inside dia., 0.5 mm out. dia., EICOM), was inserted in such a manner that its leading end would be situated in the upper part of the area postrema. […] With reference to the atlas of Paxinos and Watson (1986), the stereotaxic coordinates were AP: −6.0 mm (from interaural line), L: 0.0 mm, and H: +1.5 mm (from interaural line). […]
After waiting overnight postoperatively, the polyethylene tube was connected to a transducer (Spectramed) and the blood pressure was measured. After blood pressure readings became steady, the cap nut and dummy cannula were removed from the rat skull and, instead, a stainless steel microinjection cannula (0.17 mm in. dia., 0.35 mm out. dia., EICOM) connected to a Teflon tube (50 cm long, 0.1 mm in. dia., 0.4 mm out. dia., EICOM) was inserted. […]

A short description of test [2]: motor activity of mouse after administration to lateral ventricle. Particulars: for rearing behavior (increasing tendency) / spontaneous motor activity / rearing behavior: lateral ventricle, mouse. It is filed as in vivo, ICR male mice. The protocol: The effects of administration of […] to mouse lateral ventricle on motor activity were studied. The mature ICR male mice (weight at operation: about 35 g) were anesthetized by intraperitoneal administration of 50 mg/kg of pentobarbital, and then fixed on a stereotaxic apparatus. The skull of a said mouse was exposed, then a hole was made by dental drill for guide-cannulization into the left lateral ventricle. The tip of a stainless-steel guide-cannula (24 G, length: 5 mm) for drug injection to lateral ventricle, was inserted to the position of AP: +0.6 mm (from bregma), L: left 1 mm and H: −1 mm (from dura matter). The guide-cannula was fixed onto the skull with adhesive. The cannula-implanted mice were housed as described above and were used for behavioral analysis at least 3 days after the operation.
Motor activity such as spontaneous motor activity and rearing was measured while each mouse was in a transparent acrylic cage (24×37×30 cm) within a soundproofed, illuminated (light up: at 6-18 o'clock) box. Tap water and laboratory chow were available ad libitum. Motor activity was measured by means of a Supermex (Muromachi Kikai). Drugs and PBS were administered at 2:30±30 p.m. At the administration, a stainless-steel micro-injection cannula (30 G, length: 6 mm) was inserted into the guide-cannula. The micro-injection cannula was connected to a microsyringe pump with Teflon tube, and injection of PBS or a peptide dissolved in PBS lasted for 2 minutes at a speed of 2 μl/min. The micro-injection cannula was withdrawn after over a period of 2 minutes from end of injection, then motor activity was meausred.
The results are expressed as a mean±S.E.M. Student's t test was used to determine the significance of differences between values from the mice treated with a peptide and the PBS-injected controls. For the purpose of this analysis, p<0.05 was assumed to be the minimal level of significance.

Where no end group is shown, it is not given here.

On to “Ser-Arg-Ala-His-Gln-His-Ser-Met-Glu-Ile-Arg-Thr-Pro-Asp-Ile-Asn-Pro-Ala-Trp-Tyr-Ala-Gly-Arg-Gly-Ile-Arg-Pro-Val-Gly-Arg-Phe-NH2 (SRAHQHSMEIRTPDINPAWYAGRGIRPVGRF-NH2) [19P2-L31, synthetic ligand polypeptide]”, for which, in test [1], the blood pressure entry was “caused an elevation of blood pressure”. The “rearing behavior (increasing tendency)” value in test [2] (0.01 nmol) and in test [2] (0.1 nmol) was “not statistically significant” each time. Moreover, the spontaneous motor activity result in test [2] (0.01 nmol, at 20 min and 40 min after injection) was “significant increase”; in test [2] (0.1 nmol, at 25 min, 40 min and 70 min after injection), “significant increase”; in test [2] (1 nmol) it was “did not cause statistically significant change”; in test [2] (10 nmol), “significant increase”. The rearing behavior result in test [2] (1 nmol, at only 105 min after injection) is reported as “significant decrease”; in test [2] (10 nmol), “significant variation”. For the same substance, the “amount of activity (motor activity)” value in test [2] (0.01-10 nmol, lateral ventricle of mice, summary) was “an increase in the amount of activity was found”.

These data come from patent US6794491B1, “Polypeptides, their production and use” (Takeda Chemical Industries, Ltd., priority 1995, dated 2004).
